Values after ≈ are worked out from the molar mass of the structure shown. Active and inactive are the calls of the source. No cut-off for these calls is given here. Peptide text beside a SMILES is read from it.
How the values were obtained:
BE(2)-C [1] = assay: Induction of membrane blebbing in human BE(2)-C cells at 2xIC50 after 12 hrs by SEM analysis; format: cell-based; settings: Cell membrane
BE(2)-C [2] = assay: Induction of membrane disruption in human BE(2)-C cells assessed as red fluorescence at 2xIC50 after 24 hrs by SYTO9/PI-staining based inverted fluorescence microscopic analysis; settings: Cell membrane
HeLa [3] = assay: Induction of apoptosis in human HeLa cells assessed as DNA damage at 2xIC50 after 24 hrs by SYTO9/PI-staining based inverted fluorescence microscopic analysis; format: functional, cell-based
HeLa [4] = assay: Induction of membrane disruption in human HeLa cells assessed as membrane blebbing at 2xIC50 after 24 hrs by SYTO9/PI-staining based inverted fluorescence microscopic analysis; settings: Cell membrane
BE(2)-C [5] = assay: Induction of membrane disruption in human BE(2)-C cells assessed as increase in cell debris with damaged membrane at 2xIC50 after 12 hrs by SEM analysis; format: cell-based
HeLa [6] = assay: Synergistic antiproliferative activity against human HeLa cells assessed as FICI in presence of cisplatin after 48 hrs by MTT assay; format: functional
BE(2)-C [7] = assay: Antiproliferative activity against human BE(2)-C cells assessed as reduction in cell viability after 48 hrs by MTT assay; format: functional, cell-based
BE(2)-C [8] = assay: Induction of apoptosis in human BE(2)-C cells assessed as apoptotic cells at 2xIC50 after 24 hrs by Alexa flour 488 annexin V/PI- staining based flow cytometric analysis relative to control; format: functional
Candida albicans [9] = assay: Potentiation of amphotericin B-induced antifungal activity against Candida albicans SC5314 assessed as amphotericin MIC after 24 to 48 hrs by checker board assay; format: functional
BE(2)-C [10] = assay: Induction of ROS generation in human BE(2)-C cells after 24 hrs by DCFH-DA staining based fluorescence analysis; format: functional, cell-based
HeLa [11] = assay: Ratio of IC50 for antiproliferative activity against human HeLa cells to IC50 for antiproliferative activity against human HeLa in presence of cisplatin; format: functional
[12] = target: T1, 20S proteasome (Homo sapiens) (UniProt P49721+P20618+P28074+P28062+P28065+P28072+P25786+P25787+P25788+P25789+P28066+P60900+O14818+Q8TAA3+P40306+A5LHX3+P49720+P28070+Q99436); assay: Potency index, ratio of ixazomib IC50 to compound IC50 for inhibition of human 20S proteasome using Suc-LLVY-AMC as substrate measured every 5 mins for 120 mins by fluorescence based assay; format: protein-complex assay
BE(2)-C [13] = assay: Synergistic antiproliferative activity against human BE(2)-C cells assessed as FICI in presence of cisplatin after 48 hrs by MTT assay; format: functional
HeLa [14] = assay: Induction of ROS generation in human HeLa cells at 0.4 to 200 uM after 24 hrs in presence of ROS quencher, ascorbic acid by DCFH-DA staining based fluorescence analysis; format: functional, cell-based
Candida albicans [15] = assay: Antifungal activity against Candida albicans SC5314 in presence of amphotericin B after 24 to 48 hrs by checker board assay; format: functional
Candida albicans SC5314 = assay: Inhibition of Candida albicans SC5314 proteasome at antifungal MIC after 12 hrs by fluorescence based analysis
BE(2)-C [16] = assay: Induction of necrosis in human BE(2)-C cells at 2xIC50 after 24 hrs by Annexin-V alexa fluor 488/PI staining based fluorescence microscopic analysis; format: functional, cell-based
BE(2)-C [17] = assay: Induction of apoptosis in human BE(2)-C cells at 2xIC50 after 24 hrs by Annexin-V alexa fluor 488/PI staining based fluorescence microscopic analysis; format: functional, cell-based
HeLa [18] = assay: Induction of apoptosis in human HeLa cells assessed as condensed chromatin at 2xIC50 after 24 hrs by Hoechst-33342 staining based inverted fluorescence microscopic analysis; format: functional, cell-based
HeLa [19] = assay: Induction of apoptosis in human HeLa cells at 2xIC50 after 24 hrs by Annexin-V alexa fluor 488/PI staining based fluorescence microscopic analysis; format: functional, cell-based
BE(2)-C [20] = assay: Induction of pore formation in human BE(2)-C cell membrane at 2xIC50 after 12 hrs by SEM analysis; format: functional, cell-based
HeLa [21] = assay: Induction of apoptosis in human HeLa cells assessed as necrotic cells at 2xIC50 after 24 hrs by Alexa flour 488 annexin V/PI- staining based flow cytometric analysis relative to control; format: functional
BE(2)-C [22] = assay: Induction of apoptosis in human BE(2)-C cells assessed as condensed chromatin at 2xIC50 after 24 hrs by Hoechst-33342 staining based inverted fluorescence microscopic analysis; format: functional, cell-based
HeLa [23] = assay: Induction of necrosis in human HeLa cells at 2xIC50 after 24 hrs by Annexin-V alexa fluor 488/PI staining based fluorescence microscopic analysis; format: functional, cell-based
BE(2)-C [24] = assay: Induction of ROS generation in human BE(2)-C cells at 2xIC50 measured up to 24 hrs in presence of ROS quencher, ascorbic acid by DCFH-DA staining based fluorescence analysis; format: functional, cell-based
BE(2)-C [25] = assay: Induction of membrane disruption in human BE(2)-C cells assessed as membrane blebbing at 2xIC50 after 24 hrs by SYTO9/PI-staining based inverted fluorescence microscopic analysis; settings: Cell membrane
HeLa [26] = assay: Antiproliferative activity against human HeLa cells assessed as reduction in cell viability after 48 hrs by MTT assay; format: functional, cell-based
HeLa [27] = assay: Antiproliferative activity against human HeLa cells assessed as reduction in cell viability in presence of cisplatin after 48 hrs by MTT assay; format: functional, cell-based
BE(2)-C [28] = assay: Induction of ROS generation in human BE(2)-C cells at 0.4 to 200 uM after 24 hrs in presence of ROS quencher, ascorbic acid by DCFH-DA staining based fluorescence analysis; format: functional, cell-based
Candida albicans [29] = assay: Induction of hyphal disruption in Candida albicans SC5314 assessed as hyphal debris at 2xMBEC by SEM analysis; format: organism-based; settings: Hyphae
BE(2)-C [30] = assay: Induction of ROS generation in human BE(2)-C cells at 2xIC50 by DCFH-DA staining based fluorescence analysis; format: functional, cell-based; settings: TDE = time-dependent effect
Candida albicans [31] = assay: Antifungal activity against Candida albicans SC5314 after 48 hrs; format: functional; settings: SC5314, 48 h
[32] = target: T1, 20S proteasome (Homo sapiens); assay: Inhibition of 20S proteasome in human HeLa cells at 2xIC50 using LLVY-R110 peptide as substrate measured up to 36 hrs by fluorescence based assay; format: cell-based
[33] = Hemolytic activity in mouse RBC at 500 uM after 1 hr relative to control; format: ADME, cell-based, Erythrocyte; settings: red blood cells (erythrocytes), read-out: Activity
HeLa [34] = assay: Induction of pore formation in human HeLa cell membrane at 2xIC50 after 12 hrs by SEM analysis; format: cell-based
HeLa [35] = assay: Induction of ROS generation in human HeLa cells at 2xIC50 measured up to 24 hrs in presence of ROS quencher, ascorbic acid by DCFH-DA staining based fluorescence analysis; format: functional, cell-based
Candida albicans [36] = assay: Induction of pore formation in Candida albicans SC5314 membrane at 2xMBEC by SEM analysis; format: organism-based; settings: Cell membrane
BE(2)-C [37] = assay: Ratio of IC50 for antiproliferative activity against human BE(2)-C cells to IC50 for antiproliferative activity against human BE(2)-C cells in presence of cisplatin; format: functional
HeLa [38] = assay: Induction of ROS generation in human HeLa cells at 2xIC50 by DCFH-DA staining based fluorescence analysis; format: functional, cell-based; settings: TDE = time-dependent effect

In the case of `CC(=O)N[C@@H](Cc1ccc(O)cc1)C(=O)NCC(=O)N[C@@H](CCCNC(=N)N)C(=O)N[C@@H](CCCCN)C(=O)N[C@@H](CCCCN)C(=O)N[C@@H](CCCNC(=N)N)C(=O)N[C@@H](CCCNC(=N)N)C(=O)N[C@@H](CCC(N)=O)C(=O)N[C@@H](CCCNC(=N)N)C(=O)N[C@@H](CCCNC(=N)N)C(=O)N[C@@H](CCCNC(=N)N)C(=O)NCC(=O)NCC(=O)NCC(=O)N[C@@H](Cc1ccc(O)cc1)C(=O)N[C@@H](CC(C)C)C(=O)N[C@@H](Cc1ccccc1)C(=O)N[C@H](C=O)CC(C)C` (Ac-YGRKKRRQRRRGGGYLFL-aldehyde), the Activity (BE(2)-C [1]) is reported as “Active”, the Activity (BE(2)-C [2]) is reported as “Active” and the Activity (HeLa [3]) is reported as “Active”. The Activity (HeLa [4]) was “Active”, the Activity (BE(2)-C [5]) was “Active” and the “fractional inhibitory concentration index (FICI)” value (HeLa [6]) was 0.33. The IC50 (BE(2)-C [7]) was 4.7 µM, the Activity (BE(2)-C [8]) was 28.3% and the MIC (Candida albicans [9]) was 0.25 µM. For the same compound, the Activity (BE(2)-C [10]) was “Dose-dependent effect”, the “Ratio IC50” value (HeLa [11]) was 4 and the Ratio IC50 [12] was 4. The “fractional inhibitory concentration index (FICI)” value (BE(2)-C [13]) was 0.49, the Activity (HeLa [14]) was “inactive” and the MIC (Candida albicans [15]) was 3.12 µM. The inhibition (Candida albicans SC5314) was “Active”, the Activity (BE(2)-C [16]) was “Active” and the Activity (BE(2)-C [17]) was “Active”. For the same compound, the Activity (HeLa [18]) was “Active”, the Activity (HeLa [19]) was “Active” and the Activity (BE(2)-C [20]) was “Active”. For the same compound, the Activity (HeLa [21]) was 2.8%, the Activity (BE(2)-C [22]) was “Active” and the Activity (HeLa [23]) was “Active”. The Activity (BE(2)-C [24]) was “inactive”, the Activity (BE(2)-C [25]) was “Active” and the IC50 (HeLa [26]) was 4.7 µM. The IC50 (HeLa [27]) was 1.16 µM, the Activity (BE(2)-C [28]) was “inactive” and the Activity (Candida albicans [29]) was “Active”. The Activity (BE(2)-C [30]) was “Tde”, the MIC (Candida albicans [31]) was 15.6 µM (≈ 35.8 µg/mL) and the inhibition [32] was “Active”. The hemolysis at 1 h, 500 µM [33] was 12%, the Activity (HeLa [34]) was “Active” and the Activity (HeLa [35]) was “inactive”. For the same compound, the Activity (Candida albicans [36]) was “Active”, the “Ratio IC50” value (BE(2)-C [37]) was 4 and the Activity (HeLa [38]) was “Tde”.
For `CC(=O)N[C@@H](Cc1ccc(O)cc1)C(=O)NCC(=O)N[C@@H](CCCNC(=N)N)C(=O)N[C@@H](CCCCN)C(=O)N[C@@H](CCCCN)C(=O)N[C@@H](CCCNC(=N)N)C(=O)N[C@@H](CCCNC(=N)N)C(=O)N[C@@H](CCC(N)=O)C(=O)N[C@@H](CCCNC(=N)N)C(=O)N[C@@H](CCCNC(=N)N)C(=O)N[C@@H](CCCNC(=N)N)C(=O)NCC(=O)NCC(=O)NCC(=O)N[C@@H](CC(C)C)C(=O)N[C@@H](CC(C)C)C(=O)N[C@H](C=O)CC(C)C` (Ac-YGRKKRRQRRRGGGLLL-aldehyde), the Activity (BE(2)-C [1]) was “Active”, the Activity (BE(2)-C [2]) was “Active” and the Activity (HeLa [3]) was “Active”. For the same compound, the Activity (HeLa [4]) was “Active”, the Activity (BE(2)-C [5]) was “Active” and the “fractional inhibitory concentration index (FICI)” value (HeLa [6]) was 0.34. The IC50 (BE(2)-C [7]) was 10.3 µM, the Activity (BE(2)-C [8]) was 27.2% and the MIC (Candida albicans [9]) was 0.25 µM. For the same compound, the Activity (BE(2)-C [10]) was “Dose-dependent effect”, the “Ratio IC50” value (HeLa [11]) was 5 and the Ratio IC50 [12] was 6. For the same compound, the “fractional inhibitory concentration index (FICI)” value (BE(2)-C [13]) was 0.79, the Activity (HeLa [14]) was “inactive” and the MIC (Candida albicans [15]) was 6.25 µM. The inhibition (Candida albicans SC5314) was “Active”, the Activity (BE(2)-C [16]) was “Active” and the Activity (BE(2)-C [17]) was “Active”. For the same compound, the Activity (HeLa [18]) was “Active”, the Activity (HeLa [19]) was “Active” and the Activity (BE(2)-C [20]) was “Active”. For the same compound, the Activity (HeLa [21]) was 4.8%, the Activity (BE(2)-C [22]) was “Active” and the Activity (HeLa [23]) was “Active”. For the same compound, the Activity (BE(2)-C [24]) was “inactive”, the Activity (BE(2)-C [25]) was “Active” and the IC50 (HeLa [26]) was 10.2 µM. The IC50 (HeLa [27]) was 1.9 µM, the Activity (BE(2)-C [28]) was “inactive” and the Activity (Candida albicans [29]) was “Active”. The Activity (BE(2)-C [30]) was “Tde”, the MIC (Candida albicans [31]) was 31.2 µM (≈ 65.5 µg/mL) and the inhibition [32] was “Active”. The hemolysis at 1 h, 500 µM [33] was 1%, the Activity (HeLa [34]) was “Active” and the Activity (HeLa [35]) was “inactive”. For the same compound, the Activity (Candida albicans [36]) was “Active”, the “Ratio IC50” value (BE(2)-C [37]) was 2.5 and the Activity (HeLa [38]) was “Tde”.
